These results are taken from patent US6221914A, “Sulfonamide bridging compounds that inhibit tryptase activity” (Array Biopharma Inc., priority 1998, dated 2001).

Each structure is given as a SMILES string.

One experiment has as its target T1, Human plasma thrombin (Homo sapiens, UniProt P00734).
T1 construct: from tissue; host or cells: human plasma
Nature of the experiment: Ki determination, human plasma thrombin (H-D-Phe-Pip-Arg-pNA). Format: biochemical. Conditions: 50 mM Tris-HCl, pH 8.3, 100 mM NaCl, 1% BSA; read-out: Experimentally Determined Ki, Thrombin. On the procedure: (§1) Protease inhibition was assayed according to published procedures with minor modifications using various proteases and specific chromogenic peptide p-nitroanilide substrates. Assays were performed in Costar ultra-low cluster 96-well microtiter plate (Costar Corning Corp., Cambridge Mass.). Each protease was incubated with various concentrations of the test compound for 15 min. at 37° C. or as otherwise indicated, in specific assay buffer, and the residual activity was then measured by addition of the substrate. p-Nitroaniline produced by the proteolysis was determined by measuring the change in absorbance at 405 nm on a SpectraMAX 340 plate reader (Molecular devices, Sunnyvale, Calif.).
(§2) 1. The inhibition constant, Ki is calculated from individual data points using the equation for a tight-binding inhibitor (See Beith, "Proteinase Inhibitors-Proceedings of 2nd Int. Res. Conference", Fritz, et al. eds, New York, p.4463-4469 (1974)):
(§3) vi /vo [((Ki '+[I]+[E]o)^2 -4 [I]o
(§4) [E]o)^1/2 (Ki '+[I]o -[E]o)]/2[E]o
(§5) where Ki ' is apparent inhibition constant; vi and vo are the inhibited and uninhibited rates, respectively; [I]o and [E]o are the total concentrations of inhibitor and enzyme, respectively.
(§6) [note: [E]o is determined by active site titration of enzyme]
(§7) The Ki values are obtained by correcting Ki ' values for the effect of substrate concentration according to: [formula]
(§8) 2. Other inhibition data (Ki >>[E]o), the Ki is calculated from using the equations for a competitive inhibitor: [formula]
Human plasma thrombin activity was determined by using H-D-Phe-Pip-Arg-pNA in 50 mM Tris-HCl, pH 8.3, 100 mM NaCl, 1% BSA (See Lottenberg, et al. Meth. Enzymol. 80, 341-361 (1981)).
(§9) The inhibition constant (Ki) of the test compounds against each proteolytic enzyme was determined according to Zitnik et al., Biochem. Biophys. Res. Commun. 232, 687-697 (1997)).

For the next experiment, the target named is T2, Human plasma plasmin (Homo sapiens, UniProt P00747).
T2 construct: from tissue; host or cells: human plasma
The experiment in a line: Ki determination, human plasma plasmin (Tosyl-Gly-Pro-Lys-pNA). Format: biochemical. The note with it: 100 mM Tris-HCl, pH 7.4, 100 mM NaCl, 0.05% Triton X-100; read-out: Experimentally Determined Ki, Plasmin. How it is done: as §1, §2, §3, §4, §5, §6, §7, §8
Human plasma plasmin activity was determined by using Tosyl-Gly-Pro-Lys-pNAin 100 mM Tris-HCl, pH 7.4, 100 mM NaCl, 0.05% Triton X-100 (See Lottenberg, et al., Meth. Enzymol. 80, 341-361 (1981)).
as §9

Experiment [1] concerns the target T3, Human Neutrophil elastase (Homo sapiens, UniProt P08246).
T3 construct: from tissue; host or cells: human neutrophils
T3 sequence (P08246 30-267): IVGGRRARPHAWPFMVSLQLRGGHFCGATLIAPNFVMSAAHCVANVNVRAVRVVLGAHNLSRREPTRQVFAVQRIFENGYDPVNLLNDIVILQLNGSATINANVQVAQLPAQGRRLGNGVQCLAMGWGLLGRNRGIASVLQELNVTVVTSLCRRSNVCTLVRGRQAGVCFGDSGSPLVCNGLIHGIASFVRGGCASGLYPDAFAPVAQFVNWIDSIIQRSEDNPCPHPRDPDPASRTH
Nature of the experiment: Ki determination, human neutrophil elastase (pyroGlu-Pro-Val-pNA). The format is biochemical. Conditions: 100 mM Tris-HCl, pH 8.3, 0.96 M NaCl, 1% BSA; read-out: Experimentally Determined Ki, Elastase. On the procedure:
as §1, §2, §3, §4, §5, §6, §7, §8
Human Neutrophil elastase activity was determined by using pyroGlu-Pro-Val-pNA in 100 mM Tris-HCl, pH 8.3, 0.96 M NaCl, 1% BSA (See Kramps, et al. Scand. J. Clin. Lab. Invest. 43, 427-432 (1983)).
as §9

The target in experiment [2] is T4, Human Neutrophil Cathepsin G (Homo sapiens, UniProt P08311).
T4 construct: from tissue; host or cells: human neutrophils
T4 sequence (P08311 21-255): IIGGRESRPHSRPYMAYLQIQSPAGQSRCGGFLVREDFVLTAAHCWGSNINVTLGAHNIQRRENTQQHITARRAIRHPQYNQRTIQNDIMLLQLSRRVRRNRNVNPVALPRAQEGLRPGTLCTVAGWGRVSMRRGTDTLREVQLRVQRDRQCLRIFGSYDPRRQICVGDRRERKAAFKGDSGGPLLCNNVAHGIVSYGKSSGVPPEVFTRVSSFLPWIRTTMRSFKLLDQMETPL
The experiment in a line: Ki determination, human neutrophil cathepsin G (N-Suc-Ala-Ala-Pro-Phe-pNA). The format is biochemical. The note with it: 625 mM Tris-HCl, pH 7.5, 2.5 mM MgCl2, 0.125% Brij 35; read-out: Experimentally Determined Ki, Cathepsin G. How it is done:
as §1, §2, §3, §4, §5, §6, §7, §8
Human Neutrophil Cathepsin G activity was determined by using N-Suc-Ala-Ala-Pro-Phe-pNA in 625 mM Tris-HCl, pH 7.5, 2.5 mM MgCl2, 0.125% Brij 35 (See Groutas et al., Arch. Biochem. Biophys. 294, 144-146 (1992)).
as §9

In experiment [3] the test system is antigen-induced airway hyperresponsiveness in guinea pigs. The experiment in a line: Guinea pig airway hyperresponsiveness inhibition (ovalbumin-sensitized, histamine bronchoprovocation). Format: in vivo, guinea pig (male Hartley). Conditions: 1 mg/kg, i.t., 1 hour before antigen challenge; histamine response 6 h after antigen. On the procedure:
The compounds of the invention were tested for their ability to inhibit hyperresponsiveness in a guinea pig airway hyperresponsiveness screen according to the following protocol:
Male Hartley guinea pigs (Charles River Laboratories Inc., Wilmington, Mass.) were sensitized to ovalbumin by intraperitoneal injection with a 0.5 mL solution of 10 μg ovalbumin and 10 mg aluminum hydroxide in phosphate-buffered saline. […] Seven to nine weeks after the initial injection, the animals were used to evaluate antigen-induced guinea pig airway responses.
In order to evaluate antigen-induced airway hyperresponsiveness in guinea pigs, a baseline histamine bronchoprovocation was initially conducted in unrestrained animals. Guinea pigs (450-600 g) were placed in a whole body plethysmograph (Buxco Electronics, Troy, N.Y.). The animals were exposed to 5 second bursts of histamine aerosol generated by a DeVilbis ultrasonic nebulizer (Somerset, Pa.). […] Three days after the histamine baseline determination, the guinea pigs were again placed in the whole body plethysmograph and challenged with a 3 second aerosolized burst of 0.1% ovalbumin in phosphate-buffered saline. Six hours after antigen exposure, the development of hyperresponsiveness was evaluated by repeating the histamine bronchoprovocation. Comparisons between treatment groups were based on areas under the histamine dose response curves (AUC).
Test compounds were administered by intratracheal instillation at a dose of 1 mg/kg in PBS (pH 7.2), 1 hour before the antigen challenge. After anesthetizing a guinea pig with inhaled methoxyflurane, an endotracheal tube (18 gauge Teflon® sheath) was visually passed into the trachea with the aid of a fiberoptic light source. Test agents (or PBS for control animals) was dosed through the tube followed by a bolus of air to facilitate dispersion.
Two-way analysis of variance (ANOVA) followed by the Fisher PLSD test was used to evaluate areas under the curve ("AUC") for histamine dose responses in guinea pigs. Significance was accepted for p<0.05.

T2 sequence (P00747 581-810 limits assumed): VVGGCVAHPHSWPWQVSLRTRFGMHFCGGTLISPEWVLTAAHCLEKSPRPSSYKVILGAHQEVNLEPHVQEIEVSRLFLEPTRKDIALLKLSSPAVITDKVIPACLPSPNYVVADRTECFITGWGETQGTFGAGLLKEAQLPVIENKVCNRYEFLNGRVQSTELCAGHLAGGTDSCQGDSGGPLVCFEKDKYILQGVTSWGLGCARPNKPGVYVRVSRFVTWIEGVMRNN
T2 sequence (P00747 97-580 partner limits assumed): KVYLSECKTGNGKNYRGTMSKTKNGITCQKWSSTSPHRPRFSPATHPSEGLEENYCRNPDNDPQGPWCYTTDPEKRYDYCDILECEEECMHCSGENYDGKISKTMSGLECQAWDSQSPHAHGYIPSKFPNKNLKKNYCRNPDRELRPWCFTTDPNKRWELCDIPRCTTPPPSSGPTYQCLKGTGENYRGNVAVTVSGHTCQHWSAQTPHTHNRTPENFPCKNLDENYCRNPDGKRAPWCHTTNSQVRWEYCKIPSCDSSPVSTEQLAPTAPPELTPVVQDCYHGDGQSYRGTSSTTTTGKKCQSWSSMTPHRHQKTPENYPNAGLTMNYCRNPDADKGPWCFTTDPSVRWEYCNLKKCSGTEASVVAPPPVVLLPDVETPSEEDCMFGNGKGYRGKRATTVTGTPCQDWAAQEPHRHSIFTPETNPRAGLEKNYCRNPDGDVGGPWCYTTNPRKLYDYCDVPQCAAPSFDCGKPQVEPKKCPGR

By Ki is commonly meant a measure of affinity in units of concentration, obtained from inhibition or displacement. For the compound `N=C(N)c1cccc(S(=O)(=O)NCc2ccc(OCCCCCOc3ccc(CNS(=O)(=O)c4cccc(C(=N)N)c4)cc3)cc2)c1` [Example 41, 1,5-Bis-{4-[(3-carbamimidoyl-benzenesulfonylamino)-methyl]-phenoxy}-pentane], the Ki at Human plasma thrombin was over 100 µM; on Human plasma plasmin, 0.93 µM; in experiment [1], over 100 µM; in experiment [2], over 100 µM. Further, the “Hyperresponsiveness AUC % Inhibition” value in experiment [3] was 95%.
With `N=C(N)c1cccc(S(=O)(=O)NCc2ccc(OCCCCOc3ccc(CNS(=O)(=O)c4cccc(C(=N)N)c4)cc3)cc2)c1` [Example 47, 1,4-Bis-{4-[(3-carbamimidoyl-benzenesulfonylamino)-methyl]-phenoxy}-butane], the Ki on Human plasma thrombin was over 100 µM; at Human plasma plasmin it was 0.06 µM; in experiment [1], over 100 µM; in experiment [2] it was over 100 µM. The “Hyperresponsiveness AUC % Inhibition” value in experiment [3] is 29%.
For the compound `N=C(N)c1ccc(S(=O)(=O)NCc2ccc(OCCCOc3ccc(CNS(=O)(=O)c4ccc(C(=N)N)cc4)cc3)cc2)cc1` [Example 50, 1,3-Bis-{4-[(4-carbamimidoyl-benzenesulfonylamino)-methyl]-phenoxy}-propane], the Ki is over 100 µM at Human plasma thrombin, 6.1 µM on Human plasma plasmin, over 100 µM in experiment [1] and over 100 µM in experiment [2]. Besides, the “Hyperresponsiveness AUC % Inhibition” value in experiment [3] was 50%.
As to `N=C(N)c1ccc(C(=O)NCc2ccc(OCCCCCOc3ccc(CNC(=O)c4ccc(C(=N)N)cc4)cc3)cc2)cc1` [Example 54, 1,5-Bis-{4-[(4-carbamimidoyl-benzenecarbonylamino)-methyl]-phenoxy}-pentane], the Ki on Human plasma thrombin is over 100 µM; on Human plasma plasmin, 4.1 µM; in experiment [1], over 100 µM; in experiment [2], over 100 µM. Moreover, in experiment [3], the “Hyperresponsiveness AUC % Inhibition” value was found to be 53%.
`N=C(N)c1cccc(C(=O)NCc2cccc(OCCCCCOc3cccc(CNC(=O)c4cccc(C(=N)N)c4)c3)c2)c1` [Example 77, 1,5-Bis-{3-[(3-carbamimidoyl-benzenecarbonylamino)-methyl]-phenoxy}-pentane]: the Ki at Human plasma thrombin was over 100 µM; at Human plasma plasmin, 4.3 µM; in experiment [1] it was over 100 µM; in experiment [2], over 100 µM.
Turning to `N=C(N)c1ccc(C(=O)NCc2ccc(OCCCOc3ccc(CNC(=O)c4cccc(C(=N)N)c4)cc3)cc2)cc1` [Example 85, 4-Carbamimidoyl-N-[4-(3-{4-[(3-carbamimidoyl-benzoylamino)-methyl]-phenoxy}-propoxy)-benzyl]-benzamide], the Ki was over 100 µM on Human plasma thrombin, 5.2 µM at Human plasma plasmin, over 100 µM in experiment [1] and over 100 µM in experiment [2].
In the case of `N=C(N)c1ccc(C(=O)NCc2ccc(OCCCOc3ccc(CNS(=O)(=O)c4cccc(C(=N)N)c4)cc3)cc2)cc1` [Example 86, 4-Carbamimidoyl-N-[4-(3-{4-[(3-carbamimidoyl-benzenesulfonylamino)-methyl]-phenoxy}-propoxy)-benzyl]-benzamide], the Ki on Human plasma thrombin is over 100 µM; on Human plasma plasmin, 0.34 µM; in experiment [1] it was over 100 µM; in experiment [2] it was over 100 µM.
Turning to `N=C(N)c1ccc(C(=O)NCc2ccc(OCCCOc3ccc(CNC(=O)c4ccc(CN)cc4)cc3)cc2)cc1` [Example 87, N-[4-(3-{4-[(4-Aminomethyl-benzoylamino)-methyl]-phenoxy}-propoxy)-benzyl]-4-carbamimidoyl-benzamide], the Ki was over 100 µM on Human plasma thrombin, 7.6 µM at Human plasma plasmin, over 100 µM in experiment [1] and over 100 µM in experiment [2].
Regarding `N=C(N)c1ccc(C(=O)NCc2ccc(OCC3(COc4ccc(CNC(=O)c5ccc(C(=N)N)cc5)cc4)CCC3)cc2)cc1` [Example 93, 1,1-Bis-{4-[(4-carbamimidoyl-benzoyl-amino)-methyl]-phenoxy-methyl}-cyclobutane], the Ki at Human plasma thrombin was over 100 µM; at Human plasma plasmin it was 6.7 µM; in experiment [1], over 100 µM; in experiment [2], over 100 µM.
For `N=C(N)c1ccc2cc(C(=O)NCc3ccc(OCCOc4ccc(CNC(=O)c5ccc6cc(C(=N)N)ccc6c5)cc4)cc3)ccc2c1` [Example 100, 1,2-Bis-{4-[(6-carbamimidoylnaphthalene-2-carbonylamino)-methyl]-phenoxy}-ethane], the inhibition constant (Ki) is over 100 µM at Human plasma thrombin, 0.74 µM on Human plasma plasmin, over 100 µM in experiment [1] and over 100 µM in experiment [2].
With `N=C(N)c1ccc2[nH]c(CC(=O)NCc3ccc(OCCCOc4ccc(CNC(=O)Cc5nc6cc(C(=N)N)ccc6[nH]5)cc4)cc3)nc2c1` [Example 107, 2-(5-Carbamimidoyl-1H-benzoimidazol-2-yl)-N-{4,-[3-(4-{2-(5-carbamimidoyl-1H-benzoimidazol-2-yl)acetylaminol-methyl}-phenoxy)-propoxy]-benzyl}-acetamide], the Ki was over 100 µM at Human plasma thrombin, 2.1 µM at Human plasma plasmin, over 100 µM in experiment [1] and over 100 µM in experiment [2].
Turning to `N=C(N)c1ccc2[nH]c(CC(=O)NCc3ccc(OCCCCOc4ccc(CNC(=O)Cc5nc6cc(C(=N)N)ccc6[nH]5)cc4)cc3)nc2c1` [Example 109], the Ki is over 100 µM at Human plasma thrombin, 0.11 µM on Human plasma plasmin, over 100 µM in experiment [1] and over 100 µM in experiment [2].
Regarding `N=C(N)c1ccc2sc(C(=O)NCc3ccc(OCCCOc4ccc(CNC(=O)c5cc6cc(C(=N)N)ccc6s5)cc4)cc3)cc2c1` [Example 117, 1,3-Bis-{4-[(5-carbamidoyl-2-benzthiophenyl-carbamido)-methyl]-phenoxy}-propane], the Ki on Human plasma thrombin is over 100 µM; at Human plasma plasmin it was 50 µM; in experiment [1] it was over 100 µM; in experiment [2], over 100 µM.
